The values below are quoted from earlier work in publication PMC13041344 (Antimicrobial Agents and Chemotherapy, 2026).

In general, Cmax refers to the maximum level reached in the sampled fluid or tissue.

The conditions of this data set: humans; 2 g q8h as a 3-h infusion.

Turning to `C[C@@H](O)[C@H]1C(=O)N2C(C(=O)O)=C(S[C@@H]3CN[C@H](C(=O)N(C)C)C3)[C@H](C)[C@H]12` [MEM, meropenem], the Cmax was 46000 ng/mL.
